The values below come from the supplement of paper PMC10307832.

Assay in all cases: relative viability (nuclei count vs DMSO), 5 days (fraction); higher = more cells survive
Compound in assay [1]: CC[C@@H](C)CNCC(=O)N1CCC2=C([C@@H]1COC3=CC=CC(=C3)C)C=CS2 [RU-SKI 43]
The method in brief: (§1)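 Lung cancer cell lines in 1536-well plates were kept overnight at 37 °C, then pinned with five library-drug doses (not always all listed) spaced by √10 on vehicle-anchored plates. After 5 days without medium change, cells were fixed, permeabilised and Hoechst-stained in one step, imaged at 4×, and nuclei were counted with MetaXpress. Viability is treated-well nuclei divided by vehicle-well nuclei, taken as the median over plates. Plates passed only with control CV below 25% and at least one doubling.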

Compound in assay [2]: CCc1c2c(nc3ccc(OC(=O)N4CCC(N5CCCCC5)CC4)cc13)-c1cc3c(c(=O)n1C2)COC(=O)[C@]3(O)CC [Irinotecan]
The method in brief:
as §1

Compound in assay [3]: Cn1cc(-c2cnc3ccc4ccc(CS(=O)(=O)NCc5ccccn5)cc4c(=O)c3c2)cn1 [MK-8033]
The method in brief: as §1

Compound in assay [4]: Cn1cc(-c2cnc3ccc4ccc(CS(=O)(=O)NCc5ccccn5)cc4c(=O)c3c2)cn1 [MK-8033] + N=C(N)NC(=N)NCCc1ccccc1 [Phenformin] (partner 250 µM)
A digest of the protocol: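 After 5 days of treatment, lung cancer cells in 1536-well plates were fixed and stained in a single step (final 0.05% Triton X-100, 1% formaldehyde, 1 ug/ml Hoechst) and their nuclei counted on 4× images. Treatment had been applied by pin tool the day after seeding as one drug alone or as a fixed anchor-drug dose with five library-drug doses (not always all listed) in √10 steps. Relative viability is the nuclei count of treated wells divided by that of vehicle wells, and values are medians of duplicate plates.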

For UMC-11, the relative viability in assay [1] (0.1 µM) turned out to be 1.07; in assay [1] (0.3162 µM) it was 1.11; in assay [1] (1 µM), 1.08; in assay [1] (3.162 µM) it was 1.07; in assay [1] (10 µM) it was 0.843; in assay [2] (0.6325 µM) it was 0.677. Moreover, the relative viability turned out to be 0.675 in assay [2] (2 µM); 0.401 in assay [2] (6.325 µM); 0.264 in assay [2] (20 µM); 0.962 in assay [3] (0.02 µM); 0.837 in assay [3] (0.06325 µM); 0.916 in assay [3] (0.2 µM). For the same cell line, the relative viability in assay [3] (0.6325 µM) is 1; in assay [3] (2 µM), 0.982; in assay [4] (first compound 0.02 µM) it was 0.323; in assay [4] (first compound 0.06325 µM), 0.258; in assay [4] (first compound 0.2 µM) it was 0.312; in assay [4] (first compound 2 µM), 0.266.
